From ChEMBL document CHEMBL1152400, “Tetrahydrocarbazole amides with potent activity against human papillomaviruses” (Bioorg Med Chem Lett, 2009)

Experiments:
[1] = biological target: Cytochrome P450 2D6 (Homo sapiens, UniProt P10635); assay: Inhibition of CYP2D6; type: ADME
[2] = Cytotoxicity against HFF cells; type: cell-based; details: human
[3] = test system: Human papillomavirus type 16; assay: Antiviral activity against Human papillomavirus 16 infected in human W12-20850 cells by hybrid capture method; type: functional, organism-based; details: Human papillomavirus 16, W12-20850
[4] = biological target: Voltage-gated inwardly rectifying potassium channel KCNH2 (Homo sapiens, UniProt Q12809)
Sequence of Voltage-gated inwardly rectifying potassium channel KCNH2 (Q12809 whole entry): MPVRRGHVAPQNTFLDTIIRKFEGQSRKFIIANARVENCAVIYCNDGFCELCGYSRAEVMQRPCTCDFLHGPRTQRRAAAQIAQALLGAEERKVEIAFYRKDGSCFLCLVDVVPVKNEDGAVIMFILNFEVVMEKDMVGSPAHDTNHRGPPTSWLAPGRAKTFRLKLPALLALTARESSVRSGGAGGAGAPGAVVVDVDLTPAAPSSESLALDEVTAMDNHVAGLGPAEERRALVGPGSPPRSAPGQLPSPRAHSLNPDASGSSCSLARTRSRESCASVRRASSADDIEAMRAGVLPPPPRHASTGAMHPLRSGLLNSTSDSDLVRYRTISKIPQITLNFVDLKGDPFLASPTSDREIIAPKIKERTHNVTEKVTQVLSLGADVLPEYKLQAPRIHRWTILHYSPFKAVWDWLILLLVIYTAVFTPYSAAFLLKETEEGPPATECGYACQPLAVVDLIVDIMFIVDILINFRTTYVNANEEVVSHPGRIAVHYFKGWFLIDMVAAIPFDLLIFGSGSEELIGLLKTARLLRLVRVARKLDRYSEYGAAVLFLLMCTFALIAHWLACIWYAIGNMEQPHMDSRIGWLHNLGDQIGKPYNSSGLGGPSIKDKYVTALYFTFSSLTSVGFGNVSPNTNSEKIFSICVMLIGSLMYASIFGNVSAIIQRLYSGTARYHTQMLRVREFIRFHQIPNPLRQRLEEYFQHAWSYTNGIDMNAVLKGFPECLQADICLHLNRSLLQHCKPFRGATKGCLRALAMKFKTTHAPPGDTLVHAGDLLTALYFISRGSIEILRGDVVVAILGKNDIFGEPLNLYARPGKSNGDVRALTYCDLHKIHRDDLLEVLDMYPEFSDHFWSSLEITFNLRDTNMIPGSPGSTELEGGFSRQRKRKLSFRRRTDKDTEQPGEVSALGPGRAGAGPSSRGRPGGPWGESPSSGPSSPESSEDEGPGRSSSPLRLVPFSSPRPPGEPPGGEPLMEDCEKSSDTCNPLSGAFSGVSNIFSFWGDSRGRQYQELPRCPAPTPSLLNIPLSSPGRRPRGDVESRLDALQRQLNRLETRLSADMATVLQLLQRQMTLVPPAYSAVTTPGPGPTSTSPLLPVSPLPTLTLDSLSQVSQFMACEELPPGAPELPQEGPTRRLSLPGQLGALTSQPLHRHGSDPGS

[5] = Half life in dog at 5 mg/kg; type: ADME, organism-based, Canis lupus familiaris; set-up: dose 5 mg/kg; details: in vivo
[6] = Clearance in dog at 2 mg/kg, iv; type: ADME, organism-based, Canis lupus familiaris; set-up: dose 2 mg/kg, route intravenous; details: in vivo
[7] = Clearance in rat at 2 mg/kg, iv; type: ADME, organism-based; set-up: dose 2 mg/kg, route intravenous; details: in vivo
[8] = Half life in rat at 10 mg/kg; type: ADME, organism-based; set-up: dose 10 mg/kg; details: in vivo
[9] = Volume of distribution at steady state in rat at 2 mg/kg, iv; type: ADME, organism-based; set-up: dose 2 mg/kg, route intravenous; details: in vivo, read-out: Vdss
[10] = Volume of distribution at steady state in dog at 2 mg/kg, iv; type: ADME, organism-based, Canis lupus familiaris; set-up: dose 2 mg/kg, route intravenous; details: in vivo, read-out: Vdss
[11] = Half life in monkey at 5 mg/kg; type: ADME, organism-based, Macaca mulatta; set-up: dose 5 mg/kg; details: rhesus monkey, in vivo
[12] = Volume of distribution at steady state in monkey at 2 mg/kg, iv; type: ADME, organism-based, Macaca mulatta; set-up: dose 2 mg/kg, route intravenous; details: rhesus monkey, in vivo, read-out: Vdss
[13] = Clearance in monkey at 2 mg/kg, iv; type: ADME, organism-based, Macaca mulatta; set-up: dose 2 mg/kg, route intravenous; details: rhesus monkey, in vivo
[14] = Oral bioavailability in monkey at 5 mg/kg; type: ADME, organism-based, Macaca mulatta; details: rhesus monkey, in vivo
[15] = Oral bioavailability in rat at 10 mg/kg; type: ADME, organism-based; details: in vivo
[16] = Oral bioavailability in dog at 5 mg/kg; type: ADME, organism-based, Canis lupus familiaris; details: in vivo
[17] = Bioavailability in rat; type: ADME, organism-based; details: in vivo

Sequence of Cytochrome P450 2D6 (P10635 whole entry): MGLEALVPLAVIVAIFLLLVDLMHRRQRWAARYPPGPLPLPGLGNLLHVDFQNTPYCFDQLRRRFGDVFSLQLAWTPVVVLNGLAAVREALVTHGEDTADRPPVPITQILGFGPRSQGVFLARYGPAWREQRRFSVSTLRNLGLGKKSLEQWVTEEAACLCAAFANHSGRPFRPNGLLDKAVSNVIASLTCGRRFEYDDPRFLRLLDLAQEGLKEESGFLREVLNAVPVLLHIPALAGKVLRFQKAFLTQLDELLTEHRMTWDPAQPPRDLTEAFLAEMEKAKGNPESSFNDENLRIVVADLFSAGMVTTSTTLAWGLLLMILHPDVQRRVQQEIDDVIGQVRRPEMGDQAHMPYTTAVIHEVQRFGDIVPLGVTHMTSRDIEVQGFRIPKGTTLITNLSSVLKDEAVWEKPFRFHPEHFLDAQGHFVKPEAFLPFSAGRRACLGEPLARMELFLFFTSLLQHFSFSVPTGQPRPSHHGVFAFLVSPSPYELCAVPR

Row | SMILES | CC50 [2] | IC50 [3] | further results
1 | C[C@@H](N[C@@H]1CCCc2c1[nH]c1ccc(Br)cc21)c1ccccc1 |  |  | IC50 [1]: 0.16 µM
2 | O=C(NC1CCCc2c1[nH]c1ccc(Br)cc21)c1ccccc1 (stereo not given) | > 20 µM | 0.03 µM | 
3 | O=C(NC1CCCc2c1[nH]c1ccc(Br)cc21)OCc1ccccc1 (stereo not given) | > 20 µM | 0.045 µM | 
4 | O=C(N[C@@H]1CCCc2c1[nH]c1ccc(Cl)cc21)c1ccccc1 | 26 µM | 0.02 µM | 
5 | O=C(N[C@@H]1CCCc2c1[nH]c1ccc(Cl)cc21)c1ccccc1F | 24 µM | 0.008 µM | IC50 [4]: > 20 µM; IC50 [1]: > 20 µM
6 | O=C(N[C@H]1CCCc2c1[nH]c1ccc(Br)cc21)c1ccccc1 | 52 µM | 5.7 µM | 
7 | O=C(N[C@@H]1CCCc2c1[nH]c1ccc(Cl)cc21)c1ccccn1 | 16 µM | 0.005 µM | half-life [5]: 9.5 h; clearance [6]: 5 mL/min/kg; clearance [7]: 13.1 mL/min/kg; half-life [8]: 4.1 h; Vd [9]: 1.6 L/kg; Vd [10]: 1.7 L/kg; half-life [11]: 3.6 h; Vd [12]: 0.13 L/kg; clearance [13]: 1.1 mL/min/kg; bioavailability [14]: 56%; bioavailability [15]: 56%; bioavailability [16]: 35%
8 | Brc1ccc2[nH]c3c(c2c1)CCCC3Nc1ccccc1 (stereo not given) | 50.8 µM | 0.01 µM | bioavailability [17]: < 5%
9 | O=C(NC1CCCc2c1[nH]c1ccc(Br)cc21)C1CCCCC1 (stereo not given) | 50 µM | 0.4 µM | 
10 | O=C(Cc1ccccc1)NC1CCCc2c1[nH]c1ccc(Br)cc21 (stereo not given) | > 50 µM | 0.58 µM | 
11 | CS(=O)(=O)NC1CCCc2c1[nH]c1ccc(Br)cc21 (stereo not given) | > 50 µM | 2.26 µM | 
12 | Cc1ccccc1C(=O)NC1CCCc2c1[nH]c1ccc(Br)cc21 (stereo not given) | 40 µM | 0.5 µM | 
13 | O=C(N[C@H]1CCCc2c1[nH]c1ccc(Cl)cc21)c1ccccc1 | 55 µM | 11.3 µM | 
14 | O=C(N[C@@H]1CCCc2c1[nH]c1ccc(Br)cc21)c1ccccc1 | 39 µM | 0.008 µM | 
15 | Brc1ccc2[nH]c3c(c2c1)CCCC3Nc1ccccn1 (stereo not given) | 20.7 µM | 0.04 µM | 
16 | O=C(/C=C/c1ccccc1)NC1CCCc2c1[nH]c1ccc(Br)cc21 (stereo not given) | > 40 µM | 0.32 µM | 
17 | Brc1ccc2[nH]c3c(c2c1)CCCC3Nc1ncccn1 (stereo not given) | 89.5 µM | 0.09 µM | 

Row | SMILES | CC50 [2] | IC50 [3] | further results
18 | O=C(CCc1ccccc1)NC1CCCc2c1[nH]c1ccc(Br)cc21 (stereo not given) | > 50 µM | 1.2 µM | 
19 | CC(=O)NC1CCCc2c1[nH]c1ccc(Br)cc21 (stereo not given) | > 50 µM | 12.9 µM | 
20 | O=C(N[C@H]1CCCc2c1[nH]c1ccc(Cl)cc21)c1ccccc1F | 36 µM | 2.1 µM | 
21 | Cc1ccc(S(=O)(=O)NC2CCCc3c2[nH]c2ccc(Br)cc32)cc1 (stereo not given) | > 20 µM | 0.024 µM | 
22 | O=C(N[C@H]1CCCc2c1[nH]c1ccc(Cl)cc21)c1ccccn1 | 61 µM | 9 µM | 
23 | Cc1cccc(C(=O)NC2CCCc3c2[nH]c2ccc(Br)cc32)c1 (racemic) | 41 µM | 0.024 µM | 
24 | COc1cccc(C(=O)NC2CCCc3c2[nH]c2ccc(Br)cc32)c1 (racemic) | 26 µM | 0.021 µM | 
25 | O=C(NC1CCCc2c1[nH]c1ccc(Br)cc21)c1ccccn1 (racemic) | 72 µM | 0.005 µM | 
26 | COc1ccc(C(=O)NC2CCCc3c2[nH]c2ccc(Br)cc32)cc1 (racemic) | 88 µM | 0.017 µM | 
27 | O=C(NC1CCCc2c1[nH]c1ccc(Br)cc21)c1cccnc1 (racemic) | 100 µM | 0.19 µM | 
28 | Cc1ccc(C(=O)NC2CCCc3c2[nH]c2ccc(Br)cc32)cc1 (racemic) | 87 µM | 0.01 µM | 
29 | O=C(NC1CCCc2c1[nH]c1ccc(Br)cc21)c1ccc(F)cc1 (racemic) | 47 µM | 0.044 µM | 
30 | O=C(NC1CCCc2c1[nH]c1ccc(Br)cc21)c1ccncc1 (racemic) | 100 µM | 0.2 µM | 
31 | O=C(NC1CCCc2c1[nH]c1ccc(Br)cc21)c1cccc(F)c1 (racemic) | 65 µM | 0.018 µM | 
32 | COc1ccccc1C(=O)NC1CCCc2c1[nH]c1ccc(Br)cc21 (racemic) | 100 µM | 21 µM | 
33 | O=C(NC1CCCc2c1[nH]c1ccc(Br)cc21)c1ccccc1F (racemic) | 49 µM | 0.008 µM | 
